Read-outs that look alike come from different tables or passages of the source.
Experiments:
[1] = biological target: human cytidine deaminase (CDA) (Homo sapiens, UniProt P32320); assay: Metabolism by human cytidine deaminase (CDA), substrate absorbance at 290 nm; details: rate of substrate conversion at 200 μM; could not be fitted
cancer cell lines = assay: Cancer cell proliferation activity (CellTiterGlo, 72 h); type: cell-based; details: 72 h, 72 h, read-out: IC50 cell proliferation
In short: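 Readout is CellTiterGlo luminescence after 72 h compound exposure (0.1% DMSO final), started one day post-seeding, at 37 °C.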

Chain of human cytidine deaminase (CDA) (P32320 whole entry): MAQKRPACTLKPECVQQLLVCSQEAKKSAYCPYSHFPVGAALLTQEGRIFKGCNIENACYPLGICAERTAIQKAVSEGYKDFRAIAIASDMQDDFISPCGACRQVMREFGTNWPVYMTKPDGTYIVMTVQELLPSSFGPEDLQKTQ

Nc1ccn([C@H]2C[C@H](O)[C@](CO)(CF)O2)c(=O)n1 [Cpd. No. 198, 4-amino-1-((2R,4S,5R)-5-(fluoromethyl)-4-hydroxy-5-(hydroxymethyl)tetrahydrofuran-2-yl)pyrimidin-2(1H)-one]
substrate conversion by CDA (Inactive) [1]: Inactive
IC50 (cancer cell lines; 5637 (bladder)): 450 nM
IC50 (cancer cell lines; CLS439 (bladder)): 2270 nM
IC50 (cancer cell lines; HS729 (muscle)): 580 nM
IC50 (cancer cell lines; J82 (bladder)): 760 nM
IC50 (cancer cell lines; JAR (placenta)): > 50000 nM
IC50 (cancer cell lines; MT3 (breast)): 80 nM
IC50 (cancer cell lines; PANCI (pancreas)): 620 nM
IC50 (cancer cell lines; PC3 (prostate)): 180 nM
IC50 (cancer cell lines; RD (muscle)): 1030 nM
IC50 (cancer cell lines; T24 (bladder)): 290 nM
IC50 (cancer cell lines; Homo sapiens, A204, 72 h, A204 (muscle)): 20 nM
IC50 (cancer cell lines; Homo sapiens, A549, 72 h, A549 (lung)): 440 nM
IC50 (cancer cell lines; Homo sapiens, A2780, 72 h, A2780 (ovary)): 720 nM
IC50 (cancer cell lines; Homo sapiens, A-375, 72 h, A375 (skin)): 710 nM
IC50 (cancer cell lines; Homo sapiens, A-431, 72 h, A431 (skin)): 470 nM
IC50 (cancer cell lines; Homo sapiens, ACHN, ACHN (kidney)): 390 nM
IC50 (cancer cell lines; Homo sapiens, ASPC1, 72 h, ASPC1 (pancreas)): 580 nM
IC50 (cancer cell lines; Homo sapiens, BT-20, 72 h, BT20 (breast)): 580 nM
IC50 (cancer cell lines; Homo sapiens, BXPC-3, 72 h, BXPC3 (pancreas)): 540 nM
IC50 (cancer cell lines; Homo sapiens, C-33-A, C33A (endometrial)): 240 nM
IC50 (cancer cell lines; Homo sapiens, CAKI-1, 72 h, CAKI1 (kidney)): 110 nM
IC50 (cancer cell lines; Homo sapiens, COLO 205, 72 h, COLO205 (colon)): 210 nM
IC50 (cancer cell lines; Homo sapiens, Caco-2, 72 h, CACO2 (colon)): > 50000 nM
IC50 (cancer cell lines; Homo sapiens, Calu-6, 72 h, CALU6 (lung)): 720 nM
IC50 (cancer cell lines; Homo sapiens, DU-145, 72 h, DU145 (prostate)): 310 nM
IC50 (cancer cell lines; Homo sapiens, EFO-21, 72 h, EFO21 (ovary)): 790 nM
IC50 (cancer cell lines; Homo sapiens, Granta-519, 72 h, GRANTA-519 (hematological)): 70 nM
IC50 (cancer cell lines; Homo sapiens, HCT-15, 72 h, HCT15 (colon)): 460 nM
IC50 (cancer cell lines; Homo sapiens, HCT-116, 72 h, HCT116 (colon)): 470 nM
IC50 (cancer cell lines; Homo sapiens, HEK293, 72 h, HEK293 (kidney)): > 50000 nM
IC50 (cancer cell lines; Homo sapiens, HT-1080, 72 h, HT1080 (connective tissue)): 380 nM
IC50 (cancer cell lines; Homo sapiens, HeLa, HELA (endometrial)): 1000 nM
IC50 (cancer cell lines; Homo sapiens, HepG2, 72 h, HEPG2 (liver)): 1000 nM
IC50 (cancer cell lines; Homo sapiens, Hs-578T, HS578T (breast)): 970 nM
IC50 (cancer cell lines; Homo sapiens, IGROV-1, 72 h, IGROV1 (ovary)): 510 nM
IC50 (cancer cell lines; Homo sapiens, JIMT-1, 72 h, JIMT1 (breast)): 190 nM
IC50 (cancer cell lines; Homo sapiens, Kasumi 1, 72 h, KASUMI-1 (hematological)): 270 nM
IC50 (cancer cell lines; Homo sapiens, L-363, 72 h, L-363 (hematological)): > 50000 nM
IC50 (cancer cell lines; Homo sapiens, LoVo, LOVO (colon)): 290 nM
IC50 (cancer cell lines; Homo sapiens, MDA-MB-231, 72 h, MDAMB231 (breast)): 100 nM
IC50 (cancer cell lines; Homo sapiens, MDA-MB-435, 72 h, MDAMB435 (skin)): 1300 nM
IC50 (cancer cell lines; Homo sapiens, MDA-MB-436, 72 h, MDAMB436 (breast)): 950 nM
IC50 (cancer cell lines; Homo sapiens, MG-63, 72 h, MG63 (bone)): 480 nM
IC50 (cancer cell lines; Homo sapiens, MINO, MINO (hematological)): 60 nM
IC50 (cancer cell lines; Homo sapiens, MV4-11, 72 h, MV4-11 (hematological)): 840 nM
IC50 (cancer cell lines; Homo sapiens, NCI-H23, 72 h, NCI-H23 (lung)): 720 nM
IC50 (cancer cell lines; Homo sapiens, NCI-H292, 72 h, NCIH292 (lung)): 920 nM
IC50 (cancer cell lines; Homo sapiens, NCI-H460, 72 h, NCIH460 (lung)): 770 nM
IC50 (cancer cell lines; Homo sapiens, OVCAR-3, 72 h, OVCAR3 (ovary)): 640 nM
IC50 (cancer cell lines; Homo sapiens, PLC-PRF-5, 72 h, PLCPRF5 (liver)): > 50000 nM
IC50 (cancer cell lines; Homo sapiens, Panc1005, 72 h, PANC1005 (pancreas)): > 50000 nM
IC50 (cancer cell lines; Homo sapiens, Ramos, RAMOS (hematological)): 240 nM
IC50 (cancer cell lines; Homo sapiens, SAOS-2, 72 h, SAOS2 (bone)): 110 nM
IC50 (cancer cell lines; Homo sapiens, SF-268, 72 h, SF268 (brain)): 260 nM
IC50 (cancer cell lines; Homo sapiens, SK-BR-3, 72 h, SKBR3 (breast)): 260 nM
IC50 (cancer cell lines; Homo sapiens, SK-HEP1, 72 h, SKHEP1 (liver)): 320 nM
IC50 (cancer cell lines; Homo sapiens, SK-LMS-1, 72 h, SKLMS1 (uterus)): 860 nM
IC50 (cancer cell lines; Homo sapiens, SK-N-SH, SKNSH (brain)): > 50000 nM
IC50 (cancer cell lines; Homo sapiens, SNB-75, 72 h, SNB75 (brain)): 550 nM
IC50 (cancer cell lines; Homo sapiens, SU-DHL10, 72 h, SU-DHL-10 (hematological)): 560 nM
IC50 (cancer cell lines; Homo sapiens, SU-DHL-6, 72 h, SU-DHL-6 (hematological)): 310 nM
IC50 (cancer cell lines; Homo sapiens, THP-1, 72 h, THP-1 (hematological)): 650 nM
IC50 (cancer cell lines; Homo sapiens, U-87 MG, U87MG (brain)): 400 nM
IC50 (cancer cell lines; Homo sapiens, UO-31, 72 h, UO31 (kidney)): 550 nM
IC50 (cancer cell lines; Homo sapiens, WSU-NHL, WSU-NHL (hematological)): 150 nM
IC50 (cancer cell lines; NCI-H358M, NCIH358M (lung)): 120 nM
IC50 (cancer cell lines; PBMC, PBMC (hematological)): 710 nM
IC50 (cancer cell lines; RD-ES, RDES (bone)): 1900 nM
